Values of other authors as cited in PMC9540525 (Cancer, 2022).

Legend:
[1] = phase 1 dose-escalation study in R/R SCLC; cited from earlier work
[2] = phase 1 dose-escalation study in R/R SCLC; cited from earlier work; remark: listed apart in the source
[3] = first-in-human study; cited from earlier work

| Compound | rate of AEs [1] | pharmacokinetic properties [2] | toxicities [3] |
| --- | --- | --- | --- |
| O=C(O)c1ccc(CN2CCC(CN[C@@H]3C[C@H]3c3ccccc3)CC2)cc1 [GSK2879552] | the rate of AEs, especially serious AEs, was high | favorable pharmacokinetic properties were demonstrated |  |
| N[C@H]1CC[C@H](N[C@@H]2C[C@H]2c2ccccc2)CC1 [iadademstat] |  |  | caused toxicities, including thrombocytopenia, anemia, and febrile neutropenia, as well as deaths possibly related to iadademstat |
